Key:
[1] = tested on: blood D-glucose; test: Insulin eye drops with absorption enhancer in xylazine/ketamine-anesthetized hyperglycemic rats, blood D-glucose; type: in vivo, rat; conditions: for Blood Glucose Concentrations: insulin eye drops + 0.50% dodecyl maltoside
[2] = tested on: Aspergillus niger (ATCC No. 16404); test: Antimicrobial activity of alkylglycoside solutions, plate count log reduction; type: cell-based; conditions: […]
Source text: (§1) 20110-2209. The viable microorganisms used in the invention were not more than five passages removed from the original ATCC culture. As described herein, one passage is defined as the transfer of organisms from an established culture to fresh medium and all transfers are counted.
(§2) Cultures received from the ATCC are resuscitated according to the directions provided by the ATTC. Cells grown in broth were pelleted by centrifugation, resuspended in 1/20th the volume of fresh maintenance broth, and combined with an equal volume of 20% (v/v in water) sterile glycerol. Cells grown on agar were scraped from the surface into the maintenance broth also containing 10% glycerol broth. Small aliquots of the suspension were dispensed into sterile vials and the vials were stored in liquid nitrogen or in a mechanical freezer at a temperature no higher than about −50° C. When a fresh seed-stock vial was required, it was removed and used to inoculate a series of working stock cultures. These working stock cultures were then used periodically (each day in the case of bacteria and yeast) to start the inoculum culture.
(§3) The culture conditions for the inoculum culture is substantially as described in Table IV. For example, suitable media can include but is not limited to, Soybean-Casein Digest or Sabouraud Dextrose Agar Medium. […]
(§4) The suspension should be refrigerated if it is not used within 2 hours. To confirm the initial cfu per mL estimate, the number of cfu per mL in each suspension was determined using the conditions of media and microbial recovery incubation times listed in Table IV (e.g., from about 3 to about 7 days). This value serves to calibrate the size of inoculum used in the test. The bacterial and yeast suspensions were used within 24 hours of harvest; whereas the fungal preparation can be stored under refrigeration for up to 7 days.
(§5) To determine which alkylglycoside formulations have antibacterial activity, the formulations were prepared in phosphate buffered saline (PBS) at pH 7. As a source of nutrition, either 1.5 mg/mL bovine serum albumin (BSA; see Tables V and VI) or 1 mg/mL of PYY was added (see Table VII) to the medium. BSA (CAS Number: 9048-46-8) was obtained from Sigma-Aldrich, St. Louis, Mo., USA, n-dodecyl-4-O-α-D-glucopyranosyl-β-D-glucopyranoside and n-tetradecyl-4-O-α-D-glucopyranosyl-β-D-glucopyranoside were obtained from Anatrace Inc., Maumee, Ohio, USA, and PYY was obtained from Bachem California Inc., Torrance, Calif., USA.
(§6) Antibacterial activity of the alkylglycosides were conducted in four sterile, capped bacteriological containers of suitable size into which a sufficient volume of alkylglycoside solution had been transferred. Each container was inoculated with one of the prepared and standardized inoculums and mixed. The volume of the suspension inoculum was between about 0.5% and about 1.0% of the volume of the alkylglycoside solution. […]. To determine the level of inhibition of growth, or reduction of growth based on a logarithmic scale, the initial concentration of viable microorganisms in each test preparation was estimated based on the concentration of microorganisms in each of the standardized inoculum as determined by the plate-count method. The inoculated containers were then incubated at about 22.5° C.±2.5. The growth or non-growth of the microorganisms in each culture/container were again determined at day 14 and day 28. The number of cfu present in each calculation was determined by the plate-count procedure standard in the art for the applicable intervals. The change in the orders of magnitude of bacterium and/or fungi was then determined by subtracting the first calculated log 10 values of the concentrations of cfu per mL present at the start or beginning (e.g., day 0), from the log 10 values of the concentration of cfu per mL for each microorganism at the applicable test intervals (e.g., day 14 and day 28; see Tables V, VI and VII).

[3] = tested on: Candida albicans (ATCC No. 10231); test: as above; type: cell-based; conditions: […]
Source text: as §1, §2, §3, §4, §5, §6

[4] = tested on: Escherichia coli (ATCC No. 8739); test: as above; type: cell-based; conditions: […]
Source text: as §1, §2, §3, §4, §5, §6

[5] = tested on: Staphylococcus aureus (ATCC No. 6538); test: as above; type: cell-based; conditions: […]
Source text: as §1, §2, §3, §4, §5, §6

[6] = Intranasal triptans with alkylsaccharide in rats, plasma levels by HPLC; type: in vivo;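 also: rats in groups of eight given 20 µL into one nostril, dose expressed as triptan free base, Cmax and Tmax read from plasma concentration–time curves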
Experimental: Each set of drug solutions is administered to six groups of eight rats each by 20 uL instillation to a single nare of each animal. […] After the last blood sample is collected each animal is cuthanizcd with CO2. After blood collection, plasma is immediately prepared from each blood sample using lithium/heparin as the anticoagulant. Plasma samples are stored at −70° C. until analyzed. […] The observed Tmax values from each plot is determined by inspection of the concentration vs time plots and recorded as shown in Table XII. The doses designated in this table reflect amounts of triptan free base in each case.

[7] = tested on: human nasal epithelium; conditions: in vivo
[8] = tested on: blood D-glucose; test: Glucagon eye drops with surfactant in rats, elevation of blood D-glucose; conditions: for Blood Glucose Concentration: glucagon eye drops + 0.5% surfactant added after 120 min
Experimental: Glucagon absorption from the eye was measured in rats given eye drops containing various surfactants plus glucagon (30 μg) (Eli Lilly, Indianapolis, Ind.) by monitoring an elevation in blood D-glucose levels. In these experiments, rats were anesthetized with sodium pentobarbital rather than xylazine/ketamin.
Paired animals that receive eye drops containing the surfactant alone, or glucagon alone, were compared to animals receiving eye drops with the surfactant plus glucagon.

[9] = eye drops 0.2% insulin + 0.5% enhancer
[10] = Naratriptan 0.22 mg/kg intranasal, alkylsaccharide 0.02%
[11] = Naratriptan 0.22 mg/kg intranasal, alkylsaccharide 0.05%
[12] = Naratriptan 0.22 mg/kg intranasal, alkylsaccharide 0.1%
[13] = Naratriptan 0.22 mg/kg intranasal, alkylsaccharide 0.5%
[14] = Naratriptan 0.22 mg/kg intranasal, alkylsaccharide 2%
[15] = Rizatriptan […] intranasal, alkylsaccharide 0.02%
[16] = Rizatriptan […] intranasal, alkylsaccharide 0.05%
[17] = Rizatriptan […] intranasal, alkylsaccharide 0.1%
[18] = Rizatriptan […] intranasal, alkylsaccharide 0.5%
[19] = Rizatriptan […] intranasal, alkylsaccharide 2%
[20] = Sumatriptan 6.2 mg/kg intranasal, alkylsaccharide 0.02%
[21] = Sumatriptan 6.2 mg/kg intranasal, alkylsaccharide 0.05%
[22] = Sumatriptan 6.2 mg/kg intranasal, alkylsaccharide 0.1%
[23] = Sumatriptan 6.2 mg/kg intranasal, alkylsaccharide 0.5%
[24] = Sumatriptan 6.2 mg/kg intranasal, alkylsaccharide 2%

CCCCCCCCCCCCO[C@@H]1O[C@H](CO)[C@@H](O[C@H]2O[C@H](CO)[C@@H](O)[C@H](O)[C@H]2O)[C@H](O)[C@H]1O [dodecyl maltoside, n-dodecyl-4-O-α-D-glucopyranosyl-β-D-glucopyranoside]
hypoglycemic effect / insulin absorption enhancement [1, 9]: equally effective
hypoglycemic effect / insulin absorption enhancement ([1]; eye drops 0.2% insulin + 0.5% enhancer, listed as dodecyl-β3-D-maltoside): prompt and sustained fall in blood glucose levels
Blood Glucose Concentrations ([1]; time 0 min): 379 ± 4 mg/dL
Blood Glucose Concentrations ([1]; time 30 min): 297 ± 18 mg/dL
Blood Glucose Concentrations ([1]; time 60 min): 188 ± 25 mg/dL
Blood Glucose Concentrations ([1]; time 90 min): 141 ± 13 mg/dL
Blood Glucose Concentrations ([1]; time 120 min): 123 ± 5 mg/dL
Blood Glucose Concentrations ([1]; time −10 min): 366 ± 12 mg/dL
Blood Glucose Concentrations ([1]; time −20 min): 375 ± 9 mg/dL
Log Reduction of Microorganisms, Day 14 ([2]; BSA): 0.7 orders of orders of magnitude reduction
Log Reduction, Day 14 ([2]; PYY): 4.7 orders of orders of magnitude reduction
Log Reduction, Day 28 ([2]; PYY): 4.7 orders of orders of magnitude reduction
Log Reduction of Microorganisms, Day 14 ([3]; BSA): 3.0 orders of orders of magnitude reduction
Log Reduction of Microorganisms, Day 28 ([3]; BSA): ≧5.3 orders of orders of magnitude reduction
Log Reduction, Day 14 ([3]; PYY): ≧4.5 orders of orders of magnitude reduction
Log Reduction, Day 28 ([3]; PYY): ≧4.5 orders of orders of magnitude reduction
Log Reduction of Microorganisms, Day 28 ([4]; BSA): 0.1 orders of orders of magnitude reduction
Log Reduction, Day 14 ([4]; PYY): ≧5 orders of orders of magnitude reduction
Log Reduction, Day 28 ([4]; PYY): ≧5 orders of orders of magnitude reduction
Log Reduction of Microorganisms, Day 14 ([5]; BSA): ≧5.2 orders of orders of magnitude reduction
Log Reduction of Microorganisms, Day 28 ([5]; BSA): ≧5.2 orders of orders of magnitude reduction
Log Reduction, Day 14 ([5]; PYY): ≧4.9 orders of orders of magnitude reduction
Log Reduction, Day 28 ([5]; PYY): ≧4.9 orders of orders of magnitude reduction
Ratio Cmax(alkylsacch)/Cmax(No alkylsacch) [6, 10]: ≦1.5
Tmax [6, 10]: ~60 to 120 min
Ratio Cmax(alkylsacch)/Cmax(No alkylsacch) [6, 11]: ≧1.5
Tmax [6, 11]: ~5 to 15 min
Ratio Cmax(alkylsacch)/Cmax(No alkylsacch) [6, 12]: ≧1.5
Tmax [6, 12]: ~5 to 15 min
Ratio Cmax(alkylsacch)/Cmax(No alkylsacch) [6, 13]: ≧1.5
Tmax [6, 13]: ~5 to 15 min
Ratio Cmax(alkylsacch)/Cmax(No alkylsacch) [6, 14]: ≧1.5
Tmax [6, 14]: ~5 to 15 min
Tmax [6, 15]: ~60 to 120 min
Tmax [6, 16]: ~5 to 15 min
Tmax [6, 17]: ~5 to 15 min
Tmax [6, 18]: ~5 to 15 min
Tmax [6, 19]: ~5 to 15 min
Ratio Cmax(alkylsacch)/Cmax(No alkylsacch) [6, 20]: ≦1.5
Tmax [6, 20]: ~60 to 120 min
Ratio Cmax(alkylsacch)/Cmax(No alkylsacch) [6, 21]: ≧1.5
Tmax [6, 21]: ~5 to 15 min
Ratio Cmax(alkylsacch)/Cmax(No alkylsacch) [6, 22]: ≧1.5
Tmax [6, 22]: ~5 to 15 min
Ratio Cmax(alkylsacch)/Cmax(No alkylsacch) [6, 23]: ≧1.5
Tmax [6, 23]: ~5 to 15 min
Ratio Cmax(alkylsacch)/Cmax(No alkylsacch) [6, 24]: ≧1.5
Tmax [6, 24]: ~5 to 15 min

CCCCCCCCCCCC(=O)OC[C@H]1O[C@H](O[C@]2(CO)O[C@H](CO)[C@@H](O)[C@@H]2O)[C@H](O)[C@@H](O)[C@@H]1O [sucrose dodecanoate]
irritation of the nasal mucosa [7]: no observable irritation

CCCCCCCCCCCCCO[C@@H]1O[C@H](CO)[C@@H](O[C@H]2O[C@H](CO)[C@@H](O)[C@H](O)[C@H]2O)[C@H](O)[C@H]1O [tridecyl maltoside, tridecyl-β-D-maltoside]
Blood Glucose Concentration ([1]; 0.5% surfactant, time −10 min, before insulin eye drops): 307 mg/dL
Blood Glucose Concentration ([1]; 0.5% surfactant, time −20 min, before insulin eye drops): 255 mg/dL
hypoglycemic effect / insulin absorption enhancement [1, 9]: effective
hypoglycemic effect / insulin absorption enhancement ([1]; eye drops 0.2% insulin + […] enhancer): sustained for the two hour time course
Blood Glucose Concentration ([1]; insulin eye drops + 0.5% surfactant, time 0 min): 323 mg/dL
Blood Glucose Concentration ([1]; insulin eye drops + 0.5% surfactant, time 10 min): 309 mg/dL
Blood Glucose Concentration ([1]; insulin eye drops + 0.5% surfactant, time 20 min): 217 mg/dL
Blood Glucose Concentration ([1]; insulin eye drops + 0.5% surfactant, time 30 min): 131 mg/dL
Blood Glucose Concentration ([1]; insulin eye drops + 0.5% surfactant, time 40 min): 100 mg/dL
Blood Glucose Concentration ([1]; insulin eye drops + 0.5% surfactant, time 50 min): 87 mg/dL
Blood Glucose Concentration ([1]; insulin eye drops + 0.5% surfactant, time 60 min): 107 mg/dL
Blood Glucose Concentration ([1]; insulin eye drops + 0.5% surfactant, time 70 min): 115 mg/dL
Blood Glucose Concentration ([1]; insulin eye drops + 0.5% surfactant, time 80 min): 79 mg/dL
Blood Glucose Concentration ([1]; insulin eye drops + 0.5% surfactant, time 90 min): 85 mg/dL
Blood Glucose Concentration ([1]; insulin eye drops + 0.5% surfactant, time 100 min): 76 mg/dL
Blood Glucose Concentration ([1]; insulin eye drops + 0.5% surfactant, time 110 min): 74 mg/dL
Blood Glucose Concentration ([1]; insulin eye drops + 0.5% surfactant, time 120 min): 75 mg/dL
Ratio Cmax(alkylsacch)/Cmax(No alkylsacch) [6, 10]: ≦1.5
Tmax [6, 10]: ~60 min
Ratio Cmax(alkylsacch)/Cmax(No alkylsacch) [6, 11]: ≧1.5
Tmax [6, 11]: ~5 to 15 min
Ratio Cmax(alkylsacch)/Cmax(No alkylsacch) [6, 12]: ≧1.5
Tmax [6, 12]: ~5 to 15 min
Ratio Cmax(alkylsacch)/Cmax(No alkylsacch) [6, 13]: ≧1.5
Tmax [6, 13]: ~5 to 15 min
Ratio Cmax(alkylsacch)/Cmax(No alkylsacch) [6, 14]: ≧1.5
Tmax [6, 14]: ~5 to 15 min
Tmax [6, 15]: ~60 min
Tmax [6, 16]: ~5 to 15 min
Tmax [6, 17]: ~5 to 15 min
Tmax [6, 18]: ~5 to 15 min
Tmax [6, 19]: ~5 to 15 min
Ratio Cmax(alkylsacch)/Cmax(No alkylsacch) [6, 20]: ≦1.5
Tmax [6, 20]: ~60 min
Ratio Cmax(alkylsacch)/Cmax(No alkylsacch) [6, 21]: ≧1.5
Tmax [6, 21]: ~5 to 15 min
Ratio Cmax(alkylsacch)/Cmax(No alkylsacch) [6, 22]: ≧1.5
Tmax [6, 22]: ~5 to 15 min
Ratio Cmax(alkylsacch)/Cmax(No alkylsacch) [6, 23]: ≧1.5
Tmax [6, 23]: ~5 to 15 min
Ratio Cmax(alkylsacch)/Cmax(No alkylsacch) [6, 24]: ≧1.5
Tmax [6, 24]: ~5 to 15 min
glucagon absorption / blood D-glucose values ([8]; eye drops surfactant plus glucagon in rats previously treated with surfactant plus insulin eye drops): increase significantly
Blood Glucose Concentration ([8]; time 130 min): 82 mg/dL
Blood Glucose Concentration ([8]; time 140 min): 121 mg/dL
Blood Glucose Concentration ([8]; time 150 min): 148 mg/dL
Blood Glucose Concentration ([8]; time 160 min): 173 mg/dL
Blood Glucose Concentration ([8]; time 170 min): 162 mg/dL
Blood Glucose Concentration ([8]; time 180 min): 162 mg/dL
Blood Glucose Concentration ([8]; time 190 min): 156 mg/dL

Reference: patent US9283280B2, “Compositions for drug administration” (Aegis Therapeutics, LLC, priority 2008, dated 2016)
